In PubChem BioAssay AID651630 (Sanford-Burnham Center for Chemical Genomics, 2012) one finds IC50 cytotoxicity (DAPI nuclear signal decrease) and IC50 data, which are given here for 26 compounds.

What is called pIC50 is the IC50 on a negative log10 scale, so that one unit is a factor of ten. By IC50 is commonly meant the concentration that gives 50% inhibition.

Test [1] has as its system DAPI. Description: TAG lipid buildup inhibition with viability readout – cell-based, panel, Nile Red and DAPI fluorescence, H9c2, dose response (AID 651630).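 Note: cells exposed to compound overnight before fixation and staining.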 Conditions: H9c2 cells, DAPI nuclear fluorescence (cytotoxicity counter-readout), oleic acid.
Test [2] concerns TAG. Described as above. Conditions: H9c2 cells, Nile Red TAG fluorescence, oleic acid.

pIC50: −log10 of the molar value. Active and inactive are the calls of the source.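 Rule for the calls: active = lipid-stain IC50 at or below a set limit, with nuclear-stain toxicity IC50 at least five times higher; inactive = the rest.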

Turning to `C=CC[C@@H](CC(=O)N(CCO)Cc1ccccc1)C(=O)N[C@H](COC(=O)[C@@H](CC=C)CC(=O)OC(C)(C)C)Cc1ccccc1`, the IC50 cytotoxicity (DAPI nuclear signal decrease) in test [1] (mean of runs) was > 25 µM (inactive); in test [1] (run 1) it was > 25 µM; in test [1] (run 2), > 25 µM. The results for the negative-log IC50 (pIC50) in test [2] (mean of runs), in test [2] (run 1) and in test [2] (run 2) were 5.23, 5.24 and 5.22, respectively.

For `CCC(=O)Nc1ccc(-c2nnc(-c3ccccc3)o2)cc1`, the IC50 cytotoxicity (DAPI nuclear signal decrease) in test [1] (mean of runs) was > 25 µM (inactive); in test [1] (run 1), > 25 µM; in test [1] (run 2), > 25 µM. Also, the IC50 in test [2] (mean of runs) is > 25 µM (inactive). Further, the pIC50 in test [2] (run 1) and in test [2] (run 2) was < 4.60 in each case.

Regarding `Cc1nn2c(NCc3ccccn3)c3c(nc2c1-c1ccccc1)CCC3`, the IC50 cytotoxicity (DAPI nuclear signal decrease) in test [1] (mean of runs) is > 25 µM (inactive); in test [1] (run 1), > 25 µM; in test [1] (run 2), > 25 µM. Further, in test [2] (mean of runs), the IC50 was > 25 µM (inactive). Also, the pIC50 in test [2] (run 1) and in test [2] (run 2) was < 4.60 each time.

For `COc1ccc2cc3cc(C(=O)NCCc4ccc(OC)c(OC)c4)oc3nc2c1`, the IC50 cytotoxicity (DAPI nuclear signal decrease) in test [1] (mean of runs) is > 25 µM (inactive); in test [1] (run 1) it was > 25 µM; in test [1] (run 2), > 25 µM. Also, the IC50 in test [2] (mean of runs) is > 25 µM (inactive). The negative logarithm of the IC50 (pIC50) in test [2] (run 1) and in test [2] (run 2) was < 4.60 each time.

Regarding `C=CCNc1nc(Nc2ccc(OC)c(OC)c2)c2sc(-c3ccccc3)cc2n1`, the figures for the IC50 cytotoxicity (DAPI nuclear signal decrease) in test [1] (mean of runs), in test [1] (run 1) and in test [1] (run 2) were > 25 µM (inactive), > 25 µM and > 25 µM, respectively. The pIC50 in test [2] (mean of runs) is 5.29; in test [2] (run 1), 5.14; in test [2] (run 2), 5.50.

On to `CN1CCN(c2ccc([N+](=O)[O-])cc2C(=O)c2ccc(Cl)cc2)CC1`, for which the IC50 cytotoxicity (DAPI nuclear signal decrease) in test [1] (mean of runs) was > 25 µM (inactive); in test [1] (run 1), > 25 µM; in test [1] (run 2), > 25 µM. The IC50 in test [2] (mean of runs) was > 25 µM (inactive). Besides, the pIC50 in test [2] (run 1) and in test [2] (run 2) was < 4.60 in each case.

With `CCOCCC(=O)Nc1ccc2c(c1)c(=O)n(C)n2C/C=C/c1ccccc1`, the values for the IC50 cytotoxicity (DAPI nuclear signal decrease) in test [1] (mean of runs), in test [1] (run 1) and in test [1] (run 2) were > 25 µM (inactive), > 25 µM and > 25 µM, respectively. Further, in test [2] (mean of runs), the IC50 is > 25 µM (inactive). Also, the pIC50 in test [2] (run 1) and in test [2] (run 2) was < 4.60 in each case.

On to `CC(C)(C)c1ccc(/C=N/NC(=O)Cc2c[nH]c3ccccc23)cc1`, for which the IC50 cytotoxicity (DAPI nuclear signal decrease) was > 25 µM (inactive) in test [1] (mean of runs), > 25 µM in test [1] (run 1) and > 25 µM in test [1] (run 2). For the same compound, in test [2] (mean of runs), the IC50 was 20.5 µM (inactive). For the same compound, the pIC50 is 4.78 in test [2] (run 1) and 4.61 in test [2] (run 2).

For `C[C@H]1CN([C@@H](C)CO)C(=O)c2cc(NC(=O)Nc3cccc4ccccc34)ccc2O[C@@H]1CN(C)Cc1ccc(-c2ccccc2)cc1`, the IC50 cytotoxicity (DAPI nuclear signal decrease) in test [1] (mean of runs) was > 25 µM (inactive); in test [1] (run 1), > 25 µM; in test [1] (run 2), > 25 µM. Moreover, the pIC50 was 4.70 in test [2] (run 1) and < 4.60 in test [2] (run 2).

On to `Cn1nnc2c[n+](CC(=O)c3ccc(Cl)cc3)cc(Br)c21`, for which the IC50 cytotoxicity (DAPI nuclear signal decrease) in test [1] (mean of runs) is 21.5 µM (inactive); in test [1] (run 1), 20.9 µM; in test [1] (run 2), 22.1 µM. For the same compound, the pIC50 in test [2] (mean of runs) is 4.87; in test [2] (run 1) it was 4.86; in test [2] (run 2), 4.88.

Turning to `CC(=O)OCC(=O)[C@@]12OC3(CCCC3)O[C@@H]1C[C@H]1[C@@H]3CCC4=CC(=O)C=C[C@]4(C)[C@@]3(F)[C@@H](O)C[C@@]12C`, the IC50 cytotoxicity (DAPI nuclear signal decrease) in test [1] (run 1) and in test [1] (run 2) was > 25 µM throughout. Further, the pIC50 in test [2] (mean of runs) is 5.55; in test [2] (run 1) it was 5.57; in test [2] (run 2), 5.53.

Consider `COc1cc(-c2cnc3c(NC=O)cc(-c4cccnc4)cn23)cc(OC)c1OC`, for which the IC50 cytotoxicity (DAPI nuclear signal decrease) was > 25 µM (inactive) in test [1] (mean of runs), > 25 µM in test [1] (run 1) and > 25 µM in test [1] (run 2). In addition, the IC50 in test [2] (mean of runs) was 15.8 µM (inactive). The results for the pIC50 in test [2] (run 1) and in test [2] (run 2) were 4.84 and 4.77, respectively.

Consider `CN(C)CCNC(=O)C(=O)Nc1ccc2c(c1)N(S(=O)(=O)c1cccs1)CCC2`, for which the IC50 cytotoxicity (DAPI nuclear signal decrease) in test [1] (mean of runs) is > 25 µM (inactive); in test [1] (run 1), > 25 µM; in test [1] (run 2), > 25 µM. Moreover, in test [2] (mean of runs), the IC50 was > 25 µM (inactive). In addition, the pIC50 in test [2] (run 1) and in test [2] (run 2) was < 4.60 each time.

For the compound `NC(Cc1ccc(Cl)cc1)c1csc(NC(=O)NCCc2ccccc2)n1` (centres undefined), the results for the IC50 cytotoxicity (DAPI nuclear signal decrease) in test [1] (mean of runs), in test [1] (run 1) and in test [1] (run 2) were 19.7 µM (inactive), 19 µM and 20.4 µM, respectively. Besides, the IC50 in test [2] (mean of runs) is > 25 µM (inactive). For the same compound, the pIC50 in test [2] (run 1) and in test [2] (run 2) was < 4.60 each time.

Take `COc1cc(C#Cc2c(-c3cncn3C)n(C)c3ccc(-c4cc(OC)c(OC)c(OC)c4)cc23)cc(OC)c1`: the results for the IC50 cytotoxicity (DAPI nuclear signal decrease) in test [1] (mean of runs), in test [1] (run 1) and in test [1] (run 2) were > 25 µM (inactive), > 25 µM and > 25 µM, respectively. Further, the IC50 in test [2] (mean of runs) was > 25 µM (inactive). In addition, the negative logarithm of the IC50 (pIC50) in test [2] (run 1) and in test [2] (run 2) was < 4.60 in each case.

For `Cc1ccc2c(c1)-c1c(cnn1CC(=O)Nc1ccccc1N1CCN(C)CC1)CO2`, the values for the IC50 cytotoxicity (DAPI nuclear signal decrease) in test [1] (mean of runs), in test [1] (run 1) and in test [1] (run 2) were > 25 µM (inactive), > 25 µM and > 25 µM, respectively. In addition, the pIC50 in test [2] (run 1) was 4.62; in test [2] (run 2), < 4.60.

For `CN1N=C(N)c2cn(C3OC(COP(=O)(O)O)C(O)C3O)c3ncnc1c23` (centres undefined), the IC50 cytotoxicity (DAPI nuclear signal decrease) in test [1] (mean of runs) is 7.78 µM (inactive); in test [1] (run 1), 6.76 µM; in test [1] (run 2), 8.79 µM. Besides, the pIC50 in test [2] (mean of runs) is 4.91; in test [2] (run 1) it was 4.96; in test [2] (run 2) it was 4.87.

On to `COc1cc(-c2ccc3oc(-c4cccc(C)c4)c(C#CC4(O)CCCCC4)c3c2)cc(OC)c1OC`, for which the IC50 cytotoxicity (DAPI nuclear signal decrease) was > 25 µM (inactive) in test [1] (mean of runs), > 25 µM in test [1] (run 1) and > 25 µM in test [1] (run 2). Besides, the IC50 in test [2] (mean of runs) is 15.9 µM (inactive). Further, the pIC50 is 4.85 in test [2] (run 1) and 4.75 in test [2] (run 2).

For the compound `COCCN1Cc2cccc(C(=O)Nc3cccc(-c4nc5ccccc5[nH]4)c3)c2C1=O`, the IC50 cytotoxicity (DAPI nuclear signal decrease) in test [1] (run 1) and in test [1] (run 2) was > 25 µM in each case. In addition, the pIC50 in test [2] (mean of runs) is 5.71; in test [2] (run 1), 5.90; in test [2] (run 2), 5.58.

For the compound `COc1ccc(CCNc2nnc(Sc3nnnn3-c3ccccc3)s2)cc1OC`, the results for the IC50 cytotoxicity (DAPI nuclear signal decrease) in test [1] (mean of runs), in test [1] (run 1) and in test [1] (run 2) were > 25 µM (inactive), > 25 µM and > 25 µM, respectively. For the same compound, the pIC50 was 4.99 in test [2] (run 1) and < 4.60 in test [2] (run 2).

In the case of `CCOc1c(Cl)cc(/C=C/C(=O)N(CC)CC(=O)NCc2cccs2)cc1OC`, the values for the IC50 cytotoxicity (DAPI nuclear signal decrease) in test [1] (mean of runs), in test [1] (run 1) and in test [1] (run 2) were > 25 µM (inactive), > 25 µM and > 25 µM, respectively. For the same compound, in test [2] (mean of runs), the IC50 is 17 µM (inactive). The values for the pIC50 in test [2] (run 1) and in test [2] (run 2) were 4.72 and 4.83, respectively.

For `COc1cccc(Cn2c3ccc(NC(=O)CCc4ccc(F)cc4)cc3c(=O)n2C)c1`, the IC50 cytotoxicity (DAPI nuclear signal decrease) in test [1] (mean of runs) is > 25 µM (inactive); in test [1] (run 1) it was > 25 µM; in test [1] (run 2), > 25 µM. Moreover, the pIC50 was 4.68 in test [2] (run 1) and < 4.60 in test [2] (run 2).

With `COc1cccc(-c2cc(C(=O)Nc3ccc(N(C)C(C)=O)cc3)c3cc(Br)ccc3n2)c1`, the results for the IC50 cytotoxicity (DAPI nuclear signal decrease) in test [1] (mean of runs), in test [1] (run 1) and in test [1] (run 2) were > 25 µM (inactive), > 25 µM and > 25 µM, respectively. Further, the pIC50 is 4.91 in test [2] (mean of runs), 4.93 in test [2] (run 1) and 4.89 in test [2] (run 2).

With `COc1cc(-c2cnc3c(NC=O)cc(-c4cccc(NC(C)=O)c4)cn23)cc(OC)c1OC`, the IC50 cytotoxicity (DAPI nuclear signal decrease) in test [1] (mean of runs) was > 25 µM (inactive); in test [1] (run 1), > 25 µM; in test [1] (run 2), > 25 µM. The pIC50 was 5.26 in test [2] (mean of runs), 5.34 in test [2] (run 1) and 5.20 in test [2] (run 2).

With `CCCCOc1ccccc1C1CC(=O)NC2=C1C(=O)CCC2` (centres undefined), the IC50 cytotoxicity (DAPI nuclear signal decrease) in test [1] (mean of runs) is > 25 µM (inactive); in test [1] (run 1), > 25 µM; in test [1] (run 2), > 25 µM. For the same compound, the IC50 in test [2] (mean of runs) was 15.9 µM (inactive). Also, the pIC50 in test [2] (run 1) is 5.02; in test [2] (run 2) it was 4.65.

Take `COc1ccc(N=C2C(=Nc3ccc(OC)cc3)N(c3ccc(OC)cc3)C(=S)N2C(=O)c2ccc(OC)cc2)cc1`: the IC50 cytotoxicity (DAPI nuclear signal decrease) in test [1] (run 1) and in test [1] (run 2) was > 25 µM each time. Further, the pIC50 in test [2] (mean of runs), in test [2] (run 1) and in test [2] (run 2) was > 6.11 in each case.
